# Where two headings read alike, the source gives them in different places.
# What was measured:
# [1] = Dose-escalation study of Compound 1 pharmacokinetics in subjects with advanced malignancies (tablets of Formulations 1 and/or 3, fasted; food effect cohort); assay type: in vivo, human; conditions: for AUC: read-out: AUC0-τ
# From the text: Thus, Cmax, Cmin and Tmax were taken directly from the observed plasma concentration data or imputed in some cases. The terminal-phase disposition rate constant (λz) was estimated using a log-linear regression of the concentration data in the terminal disposition phase, and t1/2 was estimated as ln(2)/λz. AUC0-t and AUC0-τ was estimated using the linear trapezoidal rule for increasing concentrations and the log-trapezoidal rule for decreasing concentrations. At the PK steady-state, the apparent oral-dose clearance, CL/F, was estimated as Dose/AUC0-τ, and Vz/F was estimated as Dose/[AUC0-τ*λz].
# The log-transformed pharmacokinetic parameters were compared among the BID dose groups using a 1-factor ANOVA with the factor for dose. Dose-dependent exposure parameters (Cmax and AUC) were normalized to a common dose before statistical comparisons were made.
# The oral bioavailability (F) and systemic clearance (CL) were estimated. […] This method of estimation assumes near complete oral absorption and the liver being the primary organ for drug clearance. […] The above equation was modified to incorporate the term of Fa to accommodate an incomplete absorption: CL=(QH*Fa*CL/F)/(QH+Fa*CL/F).
# [2] = Preclinical PK, renal excretion after IV dose, mice; assay type: in vivo
# [3] = Preclinical PK, cynomolgus monkeys; assay type: in vivo
# [4] = Preclinical PK, beagle dogs; assay type: in vivo
# [5] = Unbound fraction in plasma; assay type: in vitro ADME
# [6] = male, dog, in vivo, 500 mg/kg/day
# [7] = human, plasma, oral, 50 mg, 50 mg QD, steady state, geometric mean
# [8] = human, plasma, oral, 100 mg, 100 mg BID, steady state, geometric mean
# [9] = human, plasma, oral, 300 mg, 300 mg BID, steady state, geometric mean
# [10] = human, plasma, oral, 400 mg, 400 mg BID, steady state, geometric mean
# [11] = human, plasma, oral, 500 mg, 500 mg BID, steady state, geometric mean
# [12] = human, plasma, oral, 600 mg, 600 mg BID, steady state, geometric mean
# [13] = human, plasma, oral, 700 mg, 700 mg BID, steady state, geometric mean
compound,measurement,setting,value
"NS(=O)(=O)NCCNc1nonc1C(=NO)Nc1ccc(F)c(Br)c1 [Compound 1, 4-({2-[(aminosulfonyl)amino]ethyl}amino)-N-(3-bromo-4-fluorophenyl)-N′-hydroxy-1,2,5-oxadiazole-3-carboximidamide]",increase of mean AUC0-τ by systemic accumulation,[1]; BID dosing,33%
same,increase of mean Cmax by systemic accumulation,[1]; BID dosing,16%
same,oral-dose clearance CL/F,"[1]; geometric mean, pooled 42 subjects, Cycle 1 Day 15",55.3 L/h
same,systemic clearance in percent hepatic blood flow,"[1]; human, estimated",29%
same,fraction of oral dose absorbed (Fa),"[1]; human, estimated as mean of cynomolgus monkey and beagle dog",64%
same,AUC(0-t),"[1]; human, plasma, oral, 50 mg, 50 mg BID, steady state, geometric mean, read-out: AUC0-t",2.58 µM·h
same,AUC,"[1]; human, plasma, oral, 50 mg, 50 mg BID, steady state, geometric mean",2.83 µM·h
same,half-life,"[1]; human, plasma, oral, 50 mg, 50 mg BID, steady state, geometric mean, read-out: t1/2 (converted)",2.3 h
same,AUC(0-t),"[1]; human, plasma, oral, 50 mg, 50 mg BID, steady state, mean ± SD, read-out: AUC0-t",2.74 ± 1.08 µM·h
same,Cmax,[1]; [7],0.365 µM
same,AUC(0-t),"[1]; human, plasma, oral, 50 mg, 50 mg QD, steady state, geometric mean, read-out: AUC0-t",1.37 µM·h
same,AUC,[1]; [7],1.56 µM·h
same,half-life,"[1]; human, plasma, oral, 50 mg, 50 mg QD, steady state, geometric mean, read-out: t1/2 (converted)",2.4 h
same,Cmax,[1]; [8],1.19 µM
same,AUC(0-t),"[1]; human, plasma, oral, 100 mg, 100 mg BID, steady state, geometric mean, read-out: AUC0-t",4.97 µM·h
same,AUC,[1]; [8],5.38 µM·h
same,half-life,"[1]; human, plasma, oral, 100 mg, 100 mg BID, steady state, geometric mean, read-out: t1/2 (converted)",3.2 h
same,AUC(0-t),"[1]; human, plasma, oral, 100 mg, 100 mg BID, steady state, mean ± SD, read-out: AUC0-t",5.32 ± 2.16 µM·h
same,Cmax,[1]; [9],2.44 µM
same,AUC(0-t),"[1]; human, plasma, oral, 300 mg, 300 mg BID, steady state, geometric mean, read-out: AUC0-t",8.88 µM·h
same,AUC,[1]; [9],9.75 µM·h
same,AUC(0-t),"[1]; human, plasma, oral, 300 mg, 300 mg BID, steady state, mean ± SD, read-out: AUC0-t",8.92 ± 0.841 µM·h
same,Cmax,[1]; [10],3.88 µM
same,AUC(0-t),"[1]; human, plasma, oral, 400 mg, 400 mg BID, steady state, geometric mean, read-out: AUC0-t",15 µM·h
same,AUC,[1]; [10],17.6 µM·h
same,half-life,"[1]; human, plasma, oral, 400 mg, 400 mg BID, steady state, geometric mean, read-out: t1/2 (converted)",2.6 h
same,AUC(0-t),"[1]; human, plasma, oral, 400 mg, 400 mg BID, steady state, mean ± SD, read-out: AUC0-t",16.7 ± 6.79 µM·h
same,Cmax,[1]; [11],4.48 µM
same,AUC(0-t),"[1]; human, plasma, oral, 500 mg, 500 mg BID, steady state, geometric mean, read-out: AUC0-t",17.3 µM·h
same,AUC,[1]; [11],19.7 µM·h
same,half-life,"[1]; human, plasma, oral, 500 mg, 500 mg BID, steady state, geometric mean, read-out: t1/2 (converted)",2.4 h
same,AUC(0-t),"[1]; human, plasma, oral, 500 mg, 500 mg BID, steady state, mean ± SD, read-out: AUC0-t",18.2 ± 6.46 µM·h
same,Cmax,"[1]; human, plasma, oral, 600 mg, 600 mg BID, Fed (high-fat meal), geometric mean",4.03 µM
same,AUC(0-t),"[1]; human, plasma, oral, 600 mg, 600 mg BID, Fed (high-fat meal), geometric mean, read-out: AUC0-12 h",25.8 µM·h
same,Cmax,"[1]; human, plasma, oral, 600 mg, 600 mg BID, Fed (high-fat meal), mean ± SD",4.53 ± 2.52 µM
same,AUC(0-t),"[1]; human, plasma, oral, 600 mg, 600 mg BID, Fed (high-fat meal), mean ± SD, read-out: AUC0-12 h",29.5 ± 18.2 µM·h
same,tmax,"[1]; human, plasma, oral, 600 mg, 600 mg BID, Fed (high-fat meal), median, read-out: Tmax",6 h
same,Cmax,"[1]; human, plasma, oral, 600 mg, 600 mg BID, food effect cohort, Fasted, geometric mean",4.52 µM
same,AUC(0-t),"[1]; human, plasma, oral, 600 mg, 600 mg BID, food effect cohort, Fasted, geometric mean, read-out: AUC0-12 h",21.6 µM·h
same,Cmax,"[1]; human, plasma, oral, 600 mg, 600 mg BID, food effect cohort, Fasted, mean ± SD",4.82 ± 2.16 µM
same,AUC(0-t),"[1]; human, plasma, oral, 600 mg, 600 mg BID, food effect cohort, Fasted, mean ± SD, read-out: AUC0-12 h",22.9 ± 9.99 µM·h
same,Cmax,[1]; [12],4.52 µM
same,AUC(0-t),"[1]; human, plasma, oral, 600 mg, 600 mg BID, steady state, geometric mean, read-out: AUC0-t",18.3 µM·h
same,AUC,[1]; [12],21.6 µM·h
same,half-life,"[1]; human, plasma, oral, 600 mg, 600 mg BID, steady state, geometric mean, read-out: t1/2 (converted)",3.2 h
same,AUC(0-t),"[1]; human, plasma, oral, 600 mg, 600 mg BID, steady state, mean ± SD, read-out: AUC0-t",19.5 ± 8.4 µM·h
same,tmax,"[1]; human, plasma, oral, 600 mg, 600 mg BID, steady state, read-out: prolongation of Tmax by a high-fat meal",4 h
same,Cmax,[1]; [13],6 µM
same,AUC(0-t),"[1]; human, plasma, oral, 700 mg, 700 mg BID, steady state, geometric mean, read-out: AUC0-t",29.6 µM·h
same,AUC,[1]; [13],33.9 µM·h
same,half-life,"[1]; human, plasma, oral, 700 mg, 700 mg BID, steady state, geometric mean, read-out: t1/2 (converted)",2.9 h
same,AUC(0-t),"[1]; human, plasma, oral, 700 mg, 700 mg BID, steady state, mean ± SD, read-out: AUC0-t",30.8 ± 10.5 µM·h
same,half-life,"[1]; human, plasma, oral, from accumulation ratio based on AUC, read-out: effective t1/2 (converted)",~6 h
same,clearance,"[1]; human, plasma, oral, read-out: mean systemic clearance CL (converted)",417 mL/min
same,bioavailability,"[1]; plasma, oral, human, estimated, CL/CLoral, read-out: mean absolute bioavailability (F)",45%
same,systemic accumulation,[1]; repeat 50 mg QD administration,no evidence of systemic accumulation
same,day on which steady-state of PK was observed,"[1]; repeat BID dosing, judged by trough plasma concentrations",≤ 8 days
same,effective half-life,"[1]; suggested by accumulation of Cmax and AUC0-τ, BID dosing",4 to 6 h
same,renal excretion of unchanged compound,[2],less than 3 % of IV dose
same,systemic clearance in percent hepatic blood flow,[3]; cynomolgus monkey,31%
same,fraction of oral dose absorbed (Fa),"[3]; cynomolgus monkeys, estimated from preclinical PK studies (not shown)",48%
same,renal excretion of unchanged compound,[3]; monkeys,less than 3 % of IV dose
same,systemic clearance in percent hepatic blood flow,[4]; beagle dog,26%
same,fraction of oral dose absorbed (Fa),"[4]; beagle dogs, estimated from preclinical PK studies (not shown)",81%
same,renal excretion of unchanged compound,[4]; dogs,less than 3 % of IV dose
same,unbound fraction in plasma,[5],3.1%
same,NOAEL unbound AUC0-24h,[6],7.9 µM·h
